Experimental data as given in US11701341B2, “Use of 3-[5-amino-4-(3-cyanobenzoyl)-pyrazol-1-yl]-n-cyclopropyl-4-methylbenzamide in the treatment of acute exacerbations of chronic obstructive pulmonary disease” (MEREO BIOPHARMA 1 LIMITED, priority 2017, dated 2023).

Legend:
patients with AECOPD = test: Phase 2 trial (AETHER): change in FEV1 from baseline to Day 7, on top of Standard of Care; format: in vivo, human; conditions: for improvement in FEV1 (change from baseline to Day 7): sub-group with blood eosinophils <2%, oral, three doses over five days (Days 1, 3, 5), on top of Standard of Care, FIG. 1, FIG. 2
Text: (§1) A Phase 2 trial (referred to as AETHER) was a double-blind, randomised, placebo-controlled clinical study investigating the use of BCT-197, on top of Standard of Care, for the treatment of patients with AECOPD. Standard of Care included the addition of steroids and/or antibiotics to a patient's chronic COPD medication and symptomatic bronchodilators. Following baseline assessment, 282 eligible patients were randomised to receive either two different dose regimens of BCT-197 or placebo (three doses over five days). The primary endpoint was a comparison of change in forced expiratory volume in 1 second (FEV1) from baseline to day 7 within each arm of the study.
The trial assessed adult patients ≥40 years with an acute exacerbation of COPD (as defined by increase in symptoms of cough, and/or sputum and/or breathlessness that required addition of antibiotics and or systemic corticosteroids to their regular treatment).
Patients received one of two oral dosing regimens of 3-[5-amino-4-(3-cyanobenzoyl)-pyrazol-1-yl]-N-cyclopropyl-4-methylbenzamide or matching oral placebo administered according to the dosing schedules shown in Table 1. […]
Efficacy of treatment was measured by the primary endpoint of change in FEV1 from baseline (before treatment) to Day 7. Patients with COPD and low eosinophils (determined by blood percentages or absolute counts) are considered to be poorly responsive to treatment of acute exacerbations using known treatments.

fibrinogen = test: AETHER exploratory outcome: fibrinogen measured in patient blood; format: in vivo, human; conditions: high and low dose over 5 days; including patients with <2% eosinophils; maximal at Day 7; FIG. 4
Text: as §1
(§2) Patients received one of two oral dosing regimens of 3-[5-amino-4-(3-cyanobenzoyl)-pyrazol-1-yl]-N-cyclopropyl-4-methylbenzamide or matching oral placebo administered according to the dosing schedules shown in Table 1.
(§3) A further exploratory outcome included over the treatment period to Day 5 and BCT197 systemic exposure (to Day 14) were the inflammatory biomarkers high sensitivity C-Reactive Protein (hsCRP) and fibrinogen measured in patient blood. […] This was maximal at Day 7 (FIGS. 3 and 4) coincident with the highest improvement in FEV1 (FIG. 2) in response to BCT197 in the same patient population with <2% eosinophils.

AECOPD = conditions: single oral dose; cited from earlier work
[1] = test system: high sensitivity C-Reactive Protein (hsCRP); test: AETHER exploratory outcome: hsCRP measured in patient blood; format: in vivo, human; conditions: high and low dose over 5 days; including patients with <2% eosinophils; maximal at Day 7; FIG. 3
Text: as §1, §2, §3

## Cc1ccc(C(=O)NC2CC2)cc1-n1ncc(C(=O)c2cccc(C#N)c2)c1N [BCT197, 3-[5-Amino-4-(3-cyanobenzoyl)-pyrazol-1-yl]-N-cyclopropyl-4-methylbenzamide]
Patients with AECOPD; >2% eosinophil sub-population, FIG. 1
  relative difference in FEV1 response versus standard of care alone (placebo arm): much less than in the low eosinophil group
Patients with AECOPD
  improvement in FEV1 (change from baseline to Day 7): substantial and consistent improvement in FEV1
Patients with AECOPD; listed as compound A
  improvement in FEV1 (change from baseline to Day 7): significant improvement
fibrinogen
  reduction versus placebo in fibrinogen from baseline: dose-dependent reduction
AECOPD
  effect on recovery of AECOPD to the stable disease state: accelerates the recovery to the stable disease state
[1]
  reduction versus placebo in hsCRP from baseline: dose-dependent reduction
